Assay results from article PMC8311653, “Design, Synthesis, In Vitro and In Vivo Characterization of Selective NKCC1 Inhibitors for the Treatment of Core Symptoms in Down Syndrome” (Journal of Medicinal Chemistry, 2021).

Assays:
[1] = In vitro mouse plasma stability; assay type: in vitro ADME; conditions: mouse plasma at 37 °C; incubated at 5 μM (final DMSO 0.1%); read-out: t1/2 plasma
Ts65Dn mice [2] = assay: T-maze test (short-term working memory); assay type: in vivo, mouse; conditions: ip 0.6 mg kg-1 daily, chronic (7-21 days)
Procedure: (§1) A veterinarian was employed to maintain the health and comfort of the animals. Mice were housed in filtered cages in a temperature-controlled room with a 12:12 h dark/light cycle and with ad libitum access to water and food. All efforts were made to minimize animal suffering and use the lowest possible number of animals required to produce statistical relevant results, according to the “3Rs concept”. In this study, we used Ts65Dn mice maintained in their original genetic background[57] by crossing (more than 40 times) Ts65Dn female to C57BL/6JEi × C3SnHeSnJ (B6EiC3) F1 males (Jackson Laboratories). Ts65Dn mice were genotyped by PCR as previously described.[58] Only males were used for behavioral experiments. Ts65Dn and controls were randomly assigned to vehicle groups (2% DMSO in saline), bumetanide (Sigma, 0.6 mg kg^–1 body weight), or 40 (0.6 mg kg^–1 body weight) and treated daily for ∼21 days by intraperitoneal injection (i.p.). On the day of behavioral testing, injection was performed 1 h before the task began.
(§2) Ts65Dn male mice (8–16 weeks old) were tested after 1 week of treatment with vehicle or 40 (0.6 mg kg^–1 i.p.). The battery of tests was run over a total period of ∼14 days (four behavioral tests with the following order Open Field, NOR, T-maze, and CFC). […] The tasks were video-recorded and then analyzed manually by a blind operator.

NKCC2 = target: T1, NKCC2 (Homo sapiens, UniProt Q13621); assay: Cl- influx assay in NKCC2-transfected HEK293 cells; assay type: cell-based; conditions: 10 μM
T1 construct: host or cells: HEK293
T1 sequence (Q13621 1-1099): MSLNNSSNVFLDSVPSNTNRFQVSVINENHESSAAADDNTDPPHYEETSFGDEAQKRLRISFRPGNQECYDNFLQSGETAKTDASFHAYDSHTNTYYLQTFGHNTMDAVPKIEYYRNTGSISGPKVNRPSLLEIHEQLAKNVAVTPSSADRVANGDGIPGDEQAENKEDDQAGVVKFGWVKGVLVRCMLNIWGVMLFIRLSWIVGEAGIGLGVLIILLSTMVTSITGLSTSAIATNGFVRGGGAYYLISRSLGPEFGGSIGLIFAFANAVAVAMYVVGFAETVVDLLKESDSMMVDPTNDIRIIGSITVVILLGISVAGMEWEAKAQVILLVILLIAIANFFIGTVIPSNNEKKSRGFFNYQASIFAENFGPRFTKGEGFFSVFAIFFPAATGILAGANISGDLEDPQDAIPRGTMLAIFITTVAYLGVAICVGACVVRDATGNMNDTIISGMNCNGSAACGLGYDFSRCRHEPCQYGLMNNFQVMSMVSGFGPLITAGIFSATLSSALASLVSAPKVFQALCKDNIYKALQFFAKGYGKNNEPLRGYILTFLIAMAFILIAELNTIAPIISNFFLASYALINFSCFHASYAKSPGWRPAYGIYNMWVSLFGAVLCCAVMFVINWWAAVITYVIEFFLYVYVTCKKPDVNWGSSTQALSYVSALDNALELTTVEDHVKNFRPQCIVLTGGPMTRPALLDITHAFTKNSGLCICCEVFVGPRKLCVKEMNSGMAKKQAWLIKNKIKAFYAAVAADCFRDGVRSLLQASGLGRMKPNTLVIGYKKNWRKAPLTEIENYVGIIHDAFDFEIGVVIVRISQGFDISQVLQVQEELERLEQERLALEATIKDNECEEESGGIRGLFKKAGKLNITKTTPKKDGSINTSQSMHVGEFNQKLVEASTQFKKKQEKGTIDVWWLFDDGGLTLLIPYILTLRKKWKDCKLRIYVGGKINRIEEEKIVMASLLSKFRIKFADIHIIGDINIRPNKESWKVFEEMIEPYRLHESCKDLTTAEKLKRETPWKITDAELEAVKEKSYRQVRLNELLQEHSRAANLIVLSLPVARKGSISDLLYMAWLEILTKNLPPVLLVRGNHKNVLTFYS
Procedure: HEK293 cells were cultured in Dulbecco’s modified Eagle’s medium (DMEM) supplemented with 10% fetal bovine serum, 1% L-glutamine, 100 U/mL penicillin, and 100 μg/mL streptomycin and maintained at 37 °C in a 5% CO2 humidified atmosphere. […] To assess KCC2 activity (Tl influx assay), cells were transfected with 8 μg of KCC2[54] subcloned in the PRK5 plasmid or mock control (empty vector) and 16 μL of Lipofectamin 2000. After 4 h, the cells were collected and plated in 96-well black-walled, clear-bottomed plates at a density of 2.5 × 10^4. After 48 h, cells were used for the Cl^– or Tl influx assays. All reagents were purchased from Life Technologies, unless otherwise specified.
After 30 min of incubation, plates were loaded into a Victor 3V (PerkinElmer) multiplate reader equipped with an automatic liquid injector system, and fluorescence of Cl^–-sensitive mbYFPQS was recorded with excitation at 485 nm and emission at 535 nm. For each well, fluorescence was first recorded for 20 s of the baseline and for 60 s after delivery of a NaCl concentrated solution (74 mM final concentration in the assay well). Fluorescence of Cl^–-sensitive mbYFPQS is inversely correlated to the intracellular Cl^– concentration;[53] therefore, chloride influx into the cells determined a decrease in mbYFPQS fluorescence. […]

Ts65Dn mice [3] = assay: Novel object recognition (NOR) test; assay type: in vivo, mouse; conditions: ip 0.6 mg kg-1 daily, chronic (7-21 days)
Procedure: as §1, §2

CN(C)S(=O)(=O)c1cc(C(=O)O)ccc1NCCCCCCCC(F)(F)F [Compound 1, 3-(-N,N-Dimethylsulfamoyl)-4-(8,8,8-trifluorooctylamino)benzoic Acid]
half-life at 5 μM [1]: > 2 h

CN(C)S(=O)(=O)c1cc(C(=O)O)c(O)cc1NCCCCCCCC(F)(F)F [Compound 40, 5-(N,N-Dimethylsulfamoyl)-2-hydroxy-4-((8,8,8-trifluorooctyl)amino)benzoic Acid]
short-term working memory in the T-maze test (number of correct choices) (Ts65Dn mice [2]): fully restored | inhibition of NKCC2 in the Cl- influx assay (NKCC2): did not show any significant inhibition | novel-discrimination ability in the NOR task (discrimination index) (Ts65Dn mice [3]): completely rescued | half-life at 5 μM [1]: > 2 h
